Source: patent US20050090529A1, “3,5 Disubstituted indazole compounds with nitrogen-bearing 5-membered heterocycles, pharmaceutical compositions, and methods for mediating or inhibiting cell proliferation” (PFIZER INC, priority 2003, published 2005)
In brackets after ≈: the same amount, converted by molar mass.

Experiments:
[1] = Measurement of kinetic solubility; details: 100 mM sodium phosphate buffer, pH 6.5, aqueous buffer, kinetic from dmso stock
Procedure: Kinetic solubility was determined with a […] stock solution from the compound(s) of interest. […] Samples and standards were then centrifuged and an aliquot was removed for HPLC analysis. Samples and standards were analyzed by HPLC and a final concentration for the sample was determined based on a one-point calibration curve from the corresponding standard. Results were reported as μg's/mL.

CDK2/Cyclin A = target: T1, CDK2/Cyclin A (Homo sapiens, UniProt P24941); assay: Inhibition of CDK2/Cyclin A retinoblastoma kinase activity (apparent Ki); assay type: biochemical; details: read-out: CDK2 Ki
T1 construct: made in house; host or cells: CDK2: insect cells (baculovirus); cyclin A: E. coli
Procedure, shortened: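 Cyclin A complex (proteolyzed cyclin) purified by gel filtration; enzyme-initiated reactions ran 20 min at 30 °C, transferring radiolabelled phosphate from [32P]/[33P]ATP onto a protein substrate, stopped with EDTA and quantified by phosphorimager.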

Compound | solubility [1] | Ki (CDK2/Cyclin A)
CCNCc1cncc(-c2ccc3[nH]nc(-c4nc(-c5ccccc5)c(C(=O)N5CCCCC5)[nH]4)c3c2)c1C [Example 9, {2-[5-(5-Ethylaminomethyl-4-methyl-pyridin-3-yl)-1H-indazol-3-yl]-5-phenyl-3H-imidazol-4-yl}-piperidin-1-yl-methanone] | 20 to 120 µg/mL (≈ 38.5 to 231 µM) | > 200 nM
CCNCc1cncc(-c2ccc3[nH]nc(-c4ncc(C(=O)N5CCOCC5)[nH]4)c3c2)c1C [Example 55, N-[(4-methyl-5-{3-[5-(morpholin-4-ylcarbonyl)-1H-imidazol-2-yl]-1H-indazol-5-yl}pyridin-3-yl)methyl]ethanamine] | > 120 µg/mL | < 50 nM
CCNCc1cncc(-c2ccc3[nH]nc(-c4cnc(-c5ccncc5)[nH]4)c3c2)c1C [Example 96, Ethyl-{4-methyl-5-[3-(2-pyridin-4-yl-3H-imidazol-4-yl)-1H-indazol-5-yl]-pyridin-3-ylmethyl}-amine] | > 120 µg/mL | 50 to 200 nM
CCNCc1cncc(-c2ccc3[nH]nc(-c4ncc[nH]4)c3c2)c1CC [Example 47, Ethyl-{4-ethyl-5-[3-(1H-imidazol-2-yl)-1H-indazol-5-yl]-pyridin-3-ylmethyl}-amine] | > 120 µg/mL | < 50 nM
CCNCc1cncc(-c2ccc3[nH]nc(-c4ncc(C(=O)NC5C6CC7CC(C6)CC5C7)[nH]4)c3c2)c1C (stereo not drawn) [Example 72, N-2-adamantyl-2-(5-{5-[(ethylamino)methyl]-4-methylpyridin-3-yl}-1H-indazol-3-yl)-1H-imidazole-5-carboxamide] | < 20 µg/mL | < 50 nM
CCNCc1cncc(-c2ccc3[nH]nc(-c4nc(-c5ccccc5)c(C(=O)N5CCC[C@H]5COC)[nH]4)c3c2)c1C [Example 14, {2-[5-(5-Ethylaminomethyl-4-methyl-pyridin-3-yl)-1H-indazol-3-yl]-5-phenyl-3H-imidazol-4-yl}-(2-methoxymethyl-pyrrolidin-1-yl)-methanone] | > 120 µg/mL | > 200 nM
CCNCc1cncc(-c2ccc3[nH]nc(-c4nc(-c5ccc(C(F)(F)F)cc5)c(C)[nH]4)c3c2)c1C [Example 28, Ethyl-(4-methyl-5-{3-[5-methyl-4-(4-trifluoromethyl-phenyl)-1H-imidazol-2-yl]-1H-indazol-5-yl}-pyridin-3-ylmethyl)-amine] | 20 to 120 µg/mL (≈ 40.8 to 245 µM) | < 50 nM
CCNCc1cncc(-c2ccc3[nH]nc(-c4ncc(C(=O)N5CCC6CCCCC6C5)[nH]4)c3c2)c1C (stereo not drawn) [Example 71, N-[(4-methyl-5-{3-[5-(octahydroisoquinolin-2(1H)-ylcarbonyl)-1H-imidazol-2-yl]-1H-indazol-5-yl}pyridin-3-yl)methyl]ethanamine] | 20 to 120 µg/mL (≈ 40.2 to 241 µM) | < 50 nM

Further lines, results first:

solubility [1] | Ki (CDK2/Cyclin A) | Compound
> 120 µg/mL | 50 to 200 nM | CCNCc1cncc(-c2ccc3[nH]nc(-c4cnco4)c3c2)c1C [Example 87, N-({4-methyl-5-[3-(1,3-oxazol-5-yl)-1H-indazol-5-yl]pyridin-3-yl}methyl)ethanamine]
20 to 120 µg/mL (≈ 49.7 to 298 µM) | < 50 nM | CCNCc1cncc(-c2ccc3[nH]nc(-c4nc(CC(C)C)c(C)[nH]4)c3c2)c1C [Example 20, Ethyl-{5-[3-(4-isobutyl-5-methyl-1H-imidazol-2-yl)-1H-indazol-5-yl]-4-methyl-pyridin-3-ylmethyl}-amine]
> 120 µg/mL | < 50 nM | CCNCc1cncc(-c2ccc3[nH]nc(-c4ncc(C(=O)N[C@H]5CCCCNC5=O)[nH]4)c3c2)c1C [Example 75, 2-(5-{5-[(ethylamino)methyl]-4-methylpyridin-3-yl}-1H-indazol-3-yl)-N-[(3S)-2-oxoazepan-3-yl]-1H-imidazole-5-carboxamide]
> 120 µg/mL | < 50 nM | Cc1c(CNC(C)C)cncc1-c1ccc2[nH]nc(-c3ncc[nH]3)c2c1 [Example 48, {5-[3-(1H-Imidazol-2-yl)-1H-indazol-5-yl]-4-methyl-pyridin-3-ylmethyl}-isopropyl-amine]
20 to 120 µg/mL (≈ 46.9 to 281 µM) | < 50 nM | CCNCc1cncc(-c2ccc3[nH]nc(-c4nc(-c5ccc(F)cc5)c[nH]4)c3c2)c1C [Example 31, Ethyl-(5-{3-[4-(4-fluoro-phenyl)-1H-imidazol-2-yl]-1H-indazol-5-yl}-4-methyl-pyridin-3-ylmethyl)-amine]
> 120 µg/mL | < 50 nM | CCNCc1cncc(-c2ccc3[nH]nc(-c4nc(C(=O)N5CCCCC5)c[nH]4)c3c2)c1C [Example 62, N-[(4-methyl-5-{3-[5-(piperidin-1-ylcarbonyl)-1H-imidazol-2-yl]-1H-indazol-5-yl}pyridin-3-yl)methyl]ethanamine]
> 120 µg/mL | < 50 nM | CCNCc1cncc(-c2ccc3[nH]nc(-c4nc(C(=O)NC(C)C)c[nH]4)c3c2)c1C [Example 64, 2-(5-{5-[(ethylamino)methyl]-4-methylpyridin-3-yl}-1H-indazol-3-yl)-N-isopropyl-1H-imidazole-5-carboxamide]
> 120 µg/mL | < 50 nM | CCNCc1cncc(-c2ccc3[nH]nc(-c4nc(-c5cccc(F)c5)c[nH]4)c3c2)c1C [Example 32, Ethyl-(5-{3-[4-(3-fluoro-phenyl)-1H-imidazol-2-yl]-1H-indazol-5-yl}-4-methyl-pyridin-3-ylmethyl)-amine]
> 120 µg/mL | 50 to 200 nM | CCNCc1cncc(-c2ccc3[nH]nc(C(N)=O)c3c2)c1C [Example 97, 5-(5-Ethylaminomethyl-4-methyl-pyridin-3-yl)-1H-indazole-3-carboxylic acid amide]
20 to 120 µg/mL (≈ 49 to 294 µM) | < 50 nM | CCNCc1cncc(-c2ccc3[nH]nc(-c4nc(-c5ccccc5)c[nH]4)c3c2)c1C [Example 30, Ethyl-{4-methyl-5-[3-(4-phenyl-1H-imidazol-2-yl)-1H-indazol-5-yl]-pyridin-3-ylmethyl}-amine]
